Source: article PMC467095 (Journal of Enzyme Inhibition and Medicinal Chemistry, 2024)
Blank lines part the entries; values can stand above or below the compound they belong to.

What was measured:
[1] = test system: STZ-induced diabetes in mice; test: Plasma insulin; type: in vivo; settings: two weeks of treatment, mean of 6 mice ± SEM
α-glucosidase = test: α-Glucosidase inhibition assay; type: biochemical; settings: for IC50: read-out: α-Glucosidase IC50, Table 3, DF = 100
[2] = test system: STZ-induced diabetes in mice; test: Liver function markers; type: in vivo; settings: plasma, two weeks of treatment, mean of 6 mice ± SEM
[3] = test system: STZ-induced diabetes in mice; test: Blood glucose in STZ-induced diabetes in mice; type: in vivo; settings: p < 0.05
[4] = test system: STZ-induced diabetes in mice; test: Kidney function parameters; type: in vivo; settings: two weeks of treatment, mean of 6 mice ± SEM; for Urea: plasma
[5] = test system: STZ-induced diabetes in mice; test: Oxidative stress markers; type: in vivo; settings: plasma, two weeks of treatment, mean of 6 mice ± SEM

SMILES: Cc1ccc(S(=O)(=O)NC(=O)NN2CC3CCCC3C2)cc1 (centres unmarked) [Gliclazide]
ALT [2]: 53.7 ± 0.7^a^,^b
AST [2]: 39.8 ± 0.3^a^,^b
ALT ([2]; listed as gliclazide): significant reduction
AST ([2]; listed as gliclazide): significant reduction
Blood sugar levels compared to the STZ-only treatment group [3]: declined significantly
Insulin [1]: 14.52 ± 0.4^a^,^b ng/mL
Insulin ([1]; listed as gliclazide): rose
Creat ([4]; plasma creatinine): 3.3 ± 0.1^a^,^b
Urea [4]: 57.5 ± 0.3^a^,^b
Urea ([4]; listed as gliclazide): significant lowering
GSH [5]: 3.15 ± 0.05^a^,^b
MDA [5]: 22 ± 0.2^a^,^b
GSH ([5]; listed as gliclazide): significant elevation
MDA ([5]; listed as gliclazide): significant reduction

SMILES: CC(=O)c1sc(NN=C2c3ccccc3-c3nc4cc(F)ccc4nc32)nc1C [Compound 8, 1–(2-(2–(7-fluoro-11H-indeno[1,2-b]quinoxalin-11-ylidene)-hydrazineyl)-4-methyl-thiazol-5-yl)-ethan-1-one]
Insulin [1]: 10.5 ± 0.3^a^,^b ng/mL
IC50 (α-glucosidase): 0.982 µM

SMILES: CCC1SC(NN=C2c3ccccc3-c3nc4cc(F)ccc4nc32)=NC1=O (centres unmarked) [Compound 16]
Insulin [1]: 9.34 ± 0.3^a^,^b ng/mL
IC50 (α-glucosidase): 7.03 µM
α-glucosidase inhibition IC50 (α-glucosidase; ± SD): good activity

Now from value to compound, other results behind:

IC50 (α-glucosidase): 10.2 µM
SMILES: O=C1CSC(N=C2c3ccccc3-c3nc4cc(F)ccc4nc32)=N1 [Compound 4]
Insulin [1]: 11.44 ± 0.2^a^,^b ng/mL

IC50 (α-glucosidase): 3 µM
SMILES: CCOC(=O)c1sc(N=C2c3ccccc3-c3nc4cc(F)ccc4nc32)nc1C [Compound 6]
Insulin [1]: 12.28 ± 0.3^a^,^b ng/mL
